Data reported in paper PMC5520944 (Cell Death & Disease, 2017).
Counter-ions that a name gives are not always drawn.

Test system: L929sAhFas
Assay: cells
Design: high-content necroptosis screen, percentage PI-positive nuclei as percent of DMSO plus stimulus control
Settings: mTNF-induced cell death, validation screen; read-out: Validation screen IC50 (µM) (TNF)
Text: To identify novel inhibitors or regulators of necroptosis, 500 small compounds from libraries targeting autophagy, kinases, phosphatases, proteases and redox balance were screened for their ability to block TNF-induced necroptosis in murine L929sAhFas cells. Three conditions were used to induce necroptosis in L929 cells: TNF alone, TNF+TAK1 inhibitor (TAK1i) and TNF+zVAD-fmk, a pan-caspase inhibitor. Inhibition of TAK1 or caspases sensitizes to necroptosis.[13], [32] Necroptosis, measured as the percentage of PI-positive nuclei normalized to the plate-specific DMSO control, was determined for each compound (Supplementary Figure 1A). Z’ values for the TNF- and TNF+TAK1i-induced cell death assay were 0.498 and 0.919, respectively (Supplementary Figures 2A and B), indicating good assay performance. Sorafenib was identified as an effective inhibitor of both TNF- and TNF+TAK1i-induced necroptosis (Figure 1a). […] In an independent screening with 437 FDA-approved drugs and TNF+zVAD-fmk as necroptosis trigger in L929 cells (Supplementary Figure 1B), Sorafenib was also shown to be a potent inhibitor (Figure 1b). […] After compound treatment, L929sAhFas (a) or L929 (b) cells were stimulated with mTNF (T), mTNF+Tak1i (TiT) or mTNF+zVAD (zVT) (Supplementary Figure 1A and B). (a) Cell death percentage (% PI-positive nuclei) or cell loss was calculated as percent of control (DMSO+stimulus). Green points marked by the green dotted line represent a selection of kinase inhibitors from the screening on L929sAhFas cells (Supplementary Table 1), that are only slightly protective in the TNF-stimulated condition. (b) Cell loss (luminescence-based readout for ATP) was calculated as percent of control (DMSO+stimulus). […] In stimulated conditions, % PI-positive nuclei was determined as % of DMSO control. Data represent mean values±S.E.M. of two independent experiments. Cells were stained with Hoechst and PI and percentage PI-positive nuclei was determined using high-content image analysis (BD pathway Bioimager). (d) L929sAhFas cells were treated with Sorafenib (concentration as indicated) for 24 h. Then, stimulus was removed, 50 cells/condition seeded and colonies counted with crystal violet staining after 10 days incubation. Quantification was performed using ImageJ. n=2, a representative experiment is shown Legends supplementary figures Supplementary Figure S1. Schemes of workflow screening assays in L929 cell lines. (A) Scheme of the workflow of a high-content screening assay on L929sAhFas cells using mTNF (T) and mTNF+Tak1i ((5Z)-7-Oxozeaenol) (TiT) to induce necroptotic cell death. Nec-1 and zVAD-fmk were used as protective and sensitizing benchmarks, respectively, on all plates. (B) Scheme of the workflow of a CellTiter-Glo luminescent cell viability screening assay on L929 cells using mTNF+zVAD (zVT) to induce necroptotic cell death. Supplementary Figure S2. Z’ calculation for cell death screening assays in L929 cells. (A) Z’ calculation for cell death screening assay (Fig. 1A) in mTNF-stimulated L929sAhFas cells. (B) Z’ calculation for cell death screening assay (Fig. 1A) in L929sAhFas cells stimulated with mTNF + Taki.

CNC(=O)c1cc(Oc2ccc(NC(=O)Nc3ccc(Cl)c(C(F)(F)F)c3)cc2)ccn1 [Sorafenib tosylate]
IC50: 3.25 µM
